Experimental data as given in PubChem BioAssay (NCI).
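All cell lines were grown in 96-well plates and treated with compound for 48 hours. At the TGI there is no net growth.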

Assays:
Experiment in all cases: growth of human tumour cells (NCI), 48 h
NCI-H23 lung = tested on: NCI-H23 lung
M19-MEL melanoma = tested on: M19-MEL melanoma
OVCAR-8 ovarian = tested on: OVCAR-8 ovarian
TK-10 renal = tested on: TK-10 renal
SNB-75 CNS = tested on: SNB-75 CNS
OVCAR-3 ovarian = tested on: OVCAR-3 ovarian
MOLT-4 leukemia = tested on: MOLT-4 leukemia
SF-268 CNS = tested on: SF-268 CNS
U251 CNS = tested on: U251 CNS
A498 renal = tested on: A498 renal
SK-MEL-2 melanoma = tested on: SK-MEL-2 melanoma
COLO 205 colon = tested on: COLO 205 colon
EKVX NSCLC = tested on: EKVX NSCLC
UACC-257 melanoma = tested on: UACC-257 melanoma
RXF 393 renal = tested on: RXF 393 renal
SF-295 CNS = tested on: SF-295 CNS
SF-539 CNS = tested on: SF-539 CNS
SW-620 colon = tested on: SW-620 colon
NCI-H460 lung = tested on: NCI-H460 lung
A549 NSCLC = tested on: A549 NSCLC
RPMI-8226 leukemia = tested on: RPMI-8226 leukemia
MALME-3M melanoma = tested on: MALME-3M melanoma
SK-OV-3 ovarian = tested on: SK-OV-3 ovarian
NCI-H522 lung = tested on: NCI-H522 lung
OVCAR-4 ovarian = tested on: OVCAR-4 ovarian
M14 melanoma = tested on: M14 melanoma
786-0 renal = tested on: 786-0 renal
KM12 colon = tested on: KM12 colon
HCT-116 colon = tested on: HCT-116 colon
SNB-78 CNS = tested on: SNB-78 CNS
LXFL 529 NSCLC = tested on: LXFL 529 NSCLC
UACC-62 melanoma = tested on: UACC-62 melanoma
LOX IMVI melanoma = tested on: LOX IMVI melanoma
DLD-1 colon = tested on: DLD-1 colon
NCI-H226 lung = tested on: NCI-H226 lung
IGROV1 ovarian = tested on: IGROV1 ovarian
K-562 leukemia = tested on: K-562 leukemia
HL-60(TB) leukemia = tested on: HL-60(TB) leukemia
SNB-19 CNS = tested on: SNB-19 CNS
HCC-2998 colon = tested on: HCC-2998 colon
HOP-62 NSCLC = tested on: HOP-62 NSCLC
CAKI-1 renal = tested on: CAKI-1 renal
HOP-18 NSCLC = tested on: HOP-18 NSCLC
KM20L2 colon = tested on: KM20L2 colon
OVCAR-5 ovarian = tested on: OVCAR-5 ovarian
SK-MEL-5 melanoma = tested on: SK-MEL-5 melanoma
UO-31 renal = tested on: UO-31 renal
HT29 colon = tested on: HT29 colon
SK-MEL-28 melanoma = tested on: SK-MEL-28 melanoma
DMS 114 small cell lung = tested on: DMS 114 small cell lung

Measured: TGI

COc1ccc2[nH]c3c4c(c5cc(C(C)(C)C)ccc5c3c2c1)C(=O)N(c1ccccc1)C4=O
47.4 µM: HCC-2998 colon
49 µM: SF-539 CNS
61.6 µM: A498 renal
> 100 µM: NCI-H23 lung | M19-MEL melanoma | OVCAR-8 ovarian | TK-10 renal | SNB-75 CNS | OVCAR-3 ovarian | MOLT-4 leukemia | SF-268 CNS | U251 CNS | SK-MEL-2 melanoma | COLO 205 colon | EKVX NSCLC | UACC-257 melanoma | RXF 393 renal | SF-295 CNS | SW-620 colon | NCI-H460 lung | A549 NSCLC | RPMI-8226 leukemia | MALME-3M melanoma | SK-OV-3 ovarian | NCI-H522 lung | OVCAR-4 ovarian | M14 melanoma | 786-0 renal | KM12 colon | HCT-116 colon | SNB-78 CNS | LXFL 529 NSCLC | UACC-62 melanoma | LOX IMVI melanoma | NCI-H226 lung | IGROV1 ovarian | K-562 leukemia | HL-60(TB) leukemia | SNB-19 CNS | HOP-62 NSCLC | CAKI-1 renal | HOP-18 NSCLC | KM20L2 colon | OVCAR-5 ovarian | SK-MEL-5 melanoma | UO-31 renal | HT29 colon | SK-MEL-28 melanoma | DMS 114 small cell lung
30.3 µM: DLD-1 colon
